Measurements: US20240116946A1 (Gilead Sciences, Inc., priority 2022, published 2024)
pEC50, pIC50: −log10 of the molar value. Where two headings read alike, the source gives them in different places.

Key:
[1] = target: recombinant SARS-CoV-2 Main protease (Mpro) (Severe acute respiratory syndrome coronavirus 2 (2019-nCoV) (SARS-CoV-2), UniProt P0DTD1); experiment: Cov Mpro Biochemical IC50 Assay; conditions: read-out: MPro IC50
SARS-CoV-2-NLuc = experiment: microbe, parasite or virus in culture; type: cell-based, SARS Coronavirus 2
[2] = recombinant SARS-CoV-2 Mpro 7.5 nM, fluorogenic peptide substrate 40 μM
[3] = Severe acute respiratory syndrome coronavirus, 48 h; read-out: MPro EC50
[4] = Severe acute respiratory syndrome coronavirus, 48 h, read-out: MPro EC50
[5] = recombinant SARS-CoV-2 Mpro, fluorogenic peptide substrate

Row | SMILES | pIC50 [1, 2] | pEC50 (SARS-CoV-2-NLuc; read-out: MPro EC50) | pEC50 (SARS-CoV-2-NLuc; [3]) | pEC50 (SARS-CoV-2-NLuc; [4]) | pIC50 [1, 5]
1 | COc1cc(-c2cc3c(s2)c(=O)n(-c2cncc4c2c(C)nn4C)c(=O)n3CCC#N)c(Cl)cc1F (single isomer, unassigned) [Example 1043, 3-(6-(2-chloro-4-fluoro-5-methoxyphenyl)-3-(1,3-dimethyl-1H-pyrazolo[3,4-c]pyridin-4-yl)-2,4-dioxo-3,4-dihydrothieno[3,2-d]pyrimidin-1(2H)-yl)propanenitrile] | < 6.00 | < 6.00 |  |  | 
2 | COc1cc(-c2cc3[nH]c(=O)n(-c4c(C)ccnc4F)c(=O)c3s2)c(Cl)cc1F [Example 738] | 7.87 |  | 7.58 |  | 
3 | COc1cc(-c2cc3[nH]c(=O)n(-c4cncc5cnn(C)c45)c(=O)c3s2)c(C)cc1Cl [Example 666] | 7.62 |  | 7.26 |  | 
4 | COc1cc(-c2cc3c(s2)c(=O)n(-c2cncc4nnn(C)c24)c(=O)n3CC2(C#N)CC2)c(Cl)cc1F [Example 688] | 8.01 |  |  | 7.84 | 
5 | Cn1cnc2cncc(-n3c(=O)c4sc(-c5cc(F)c(F)cc5Cl)cc4n(CCC#N)c3=O)c21 [Example 852] | 7.56 |  | 6.98 |  | 
6 | Cc1c(-c2cccc(Cl)c2-c2ccc3c(=O)n(-c4cncc5ccccc45)c(=O)[nH]c3c2)cnn1C [Example 243] |  |  |  | 7.91 | 7.96
7 | N#CCCn1c(=O)n(-c2cccnc2)c(=O)c2sc(-c3ccccc3C#N)cc21 [Example 801] | 7.22 |  | 6.64 |  | 
8 | O=c1[nH]c2cc(-c3cc(OC(F)F)ccc3Cl)ccc2c(=O)n1-c1cncc2ccccc12 [Example 330] |  |  |  | 6.67 | 6.49
9 | COc1ccc(Cl)c(-c2ccc3c(=O)n(-c4cncc5cccnc45)c(=O)[nH]c3c2)c1 [Example 462, 7-(2-chloro-5-methoxyphenyl)-3-(1,6-naphthyridin-8-yl)quinazoline-2,4(1H,3H)-dione] | 7.55 |  |  | 7.21 | 
10 | Cc1cc(Cl)ncc1-c1cc2[nH]c(=O)n(-c3cncc4ccccc34)c(=O)c2s1 [Example 287] |  |  |  | < 6.04 | 6.65
11 | O=c1[nH]c2cc(-c3ccsc3Cl)ccc2c(=O)n1-c1cncc2ccccc12 [Example 84] |  |  |  | 5.99 | 6.22
12 | O=c1[nH]cc(-c2cc3[nH]c(=O)n(-c4cncc5ccccc45)c(=O)c3s2)c(=O)[nH]1 [Example 20] |  |  |  | < 4.30 | 5.06
13 | Cn1ncc2cncc(-n3c(=O)c4sc(-c5ccc(Cl)cc5C#N)cc4n(CCC#N)c3=O)c21 [Example 824] | 7.65 |  | 7.10 |  | 
14 | NC(=O)c1ccccc1-c1ccc2c(=O)n(-c3cncc4ccccc34)c(=O)[nH]c2c1 [Example 66, 2-(3-(isoquinolin-4-yl)-2,4-dioxo-1,2,3,4-tetrahydroquinazolin-7-yl)benzamide] |  |  |  | < 4.30 | 5.70
15 | O=c1[nH]c2cc(-c3ncco3)sc2c(=O)n1-c1cncc2ccccc12 [Example 166, 3-(isoquinolin-4-yl)-6-(oxazol-2-yl)thieno[3,2-d]pyrimidine-2,4(1H,3H)-dione] |  |  |  | 5.35 | 6.03
16 | COc1ccc(Cl)c(-c2cc3[nH]c(=O)n(-c4cncc5nc(C(F)(F)F)sc45)c(=O)c3s2)c1 [Example 487] | 6.04 |  |  | 6.13 | 
17 | COc1ccc(C#N)c(-c2ccc3c(=O)n(-c4cncc5ccccc45)c(=O)[nH]c3c2)c1 (single isomer, unassigned) [Example 569, 2-[3-(4-isoquinolyl)-2,4-dioxo-1H-quinazolin-7-yl]-4-methoxy-benzonitrile] | 8.08 | 7.69 |  |  | 
18 | Cc1cc(-c2cc3c(s2)c(=O)n(-c2cncc4cnn(C)c24)c(=O)n3CCC#N)c(C#N)cc1F [Example 779] | 7.62 |  |  | 7.17 | 
19 | COc1cc(-c2cc3c(s2)c(=O)n(-c2cncc(Cl)c2C)c(=O)n3CCC#N)c(C#N)cc1F [Example 806] | 8.29 |  | 8.16 |  | 
20 | O=c1[nH]c2cc(-c3c(Cl)cccc3OCc3cccnn3)ccc2c(=O)n1-c1cncc2ccccc12 [Example 302] |  |  |  | 6.97 | 7.52
21 | COc1cnc(Cl)c(-c2cc3c(s2)c(=O)n(-c2cncc(C(F)F)c2)c(=O)n3CCC#N)c1 [Example 889] | 7.85 |  | 7.19 |  | 
22 | Cc1ncccc1-c1cccc(Cl)c1-c1ccc2c(=O)n(-c3cncc4ccccc34)c(=O)[nH]c2c1 [Example 320] |  |  |  | 7.85 | 7.80

Row | SMILES | pIC50 [1, 2] | pEC50 (SARS-CoV-2-NLuc; read-out: MPro EC50) | pEC50 (SARS-CoV-2-NLuc; [3]) | pEC50 (SARS-CoV-2-NLuc; [4]) | pIC50 [1, 5]
23 | COc1cc(F)cc(Cl)c1-c1ccc2c(=O)n(-c3cncc4ccccc34)c(=O)[nH]c2c1 [Example 651] | 6.47 |  |  | 6.87 | 
24 | COc1cc(-c2cc3[nH]c(=O)n(-c4cncc5cccnc45)c(=O)c3s2)c(Cl)cc1F (single isomer, unassigned) [Example 1009, 6-(2-chloro-4-fluoro-5-methoxy-phenyl)-3-(1,6-naphthyridin-8-yl)-1H-thieno[3,2-d]pyrimidine-2,4-dione] | 8.40 | 8.40 |  |  | 
25 | COc1cc(-c2cc3[nH]c(=O)n(-c4cncc5cnn(C)c45)c(=O)c3cc2F)c(C#N)cc1F [Example 766] | 7.72 |  |  | 6.99 | 
26 | COc1cc(-c2cc3c(s2)c(=O)n(-c2cncc4ccsc24)c(=O)n3CCC#N)c(Cl)cc1F [Example 654] | 8.41 |  |  | 8.62 | 
27 | COc1ccc(C#N)c(-c2cc3[nH]c(=O)n(-c4cncc5ccsc45)c(=O)c3s2)c1 [Example 483] | > 8.60 |  |  | 7.74 | 
28 | Cc1nn(C)cc1-c1cc2[nH]c(=O)n(-c3cncc4ccccc34)c(=O)c2s1 [Example 363] |  |  |  | 6.10 | 6.89
29 | Cc1cc(-c2cccc(Cl)c2-c2cc3[nH]c(=O)n(-c4cncc(C5CC5)c4)c(=O)c3s2)cnn1 [Example 615, 6-(2-chloro-6-(6-methylpyridazin-4-yl)phenyl)-3-(5-cyclopropylpyridin-3-yl)thieno[3,2-d]pyrimidine-2,4(1H,3H)-dione] | 8.01 |  | 6.85 |  | 
30 | O=C1NCc2cc(-c3cccc(Cl)c3-c3ccc4c(=O)n(-c5cncc6ccccc56)c(=O)[nH]c4c3)ccc21 [Example 360] |  |  |  | 7.38 | 7.71
31 | Cc1cncc(-c2cccc(Cl)c2-c2ccc3c(=O)n(-c4cncc5ccccc45)c(=O)[nH]c3c2)c1 [Example 198] |  |  |  | 8.07 | 8.06
32 | Cc1ccc(-c2cc3c(s2)c(=O)n(-c2cncc4cnn(C)c24)c(=O)n3CCC#N)c(C#N)c1 [Example 840] | 7.77 |  |  | 7.36 | 
33 | COc1cc(-c2cc3[nH]c(=O)n(-c4cncc5cnn(CC(F)F)c45)c(=O)c3s2)c(Cl)cc1F [Example 730] | 8.00 |  |  | 7.54 | 
34 | COc1cc(-c2cc3c(s2)c(=O)n(-c2cncc4[nH]nc(C)c24)c(=O)n3CCC#N)c(Cl)cc1F [Example 768, 3-(6-(2-chloro-4-fluoro-5-methoxyphenyl)-3-(3-methyl-1H-pyrazolo[3,4-c]pyridin-4-yl)-2,4-dioxo-3,4-dihydrothieno[3,2-d]pyrimidin-1(2H)-yl)propanenitrile] | 8.28 |  |  | 8.15 | 
35 | Cc1cncc(-n2c(=O)[nH]c3cc(-c4ccccc4Cl)ccc3c2=O)c1OCC(F)(F)F [Example 374] |  |  |  | 5.91 | 5.95
36 | COc1cc(-c2cc3c(s2)c(=O)n(-c2cncc4ccccc24)c(=O)n3CCC#N)c(Cl)cc1F [Example 632, 3-(6-(2-chloro-4-fluoro-5-methoxyphenyl)-3-(isoquinolin-4-yl)-2,4-dioxo-3,4-dihydrothieno[3,2-d]pyrimidin-1(2H)-yl)propanenitrile] | 8.21 |  | 8.51 |  | 
37 | COc1cc(-c2cc3[nH]c(=O)n(-c4cncc5c4c(C)cn5C)c(=O)c3s2)c(Cl)cc1F [Example 706] | 8.23 |  |  | 8.19 | 
38 | COc1cc(-c2cc3c(s2)c(=O)n(-c2cncc4cnn(C)c24)c(=O)n3CCC#N)c(C#N)cc1F (single isomer, unassigned) [Example 1003, 2-[1-(2-cyanoethyl)-3-(1-methylpyrazolo[4,3-c]pyridin-7-yl)-2,4-dioxo-thieno[3,2-d]pyrimidin-6-yl]-5-fluoro-4-methoxy-benzonitrile] | 8.55 | 8.25 |  |  | 
39 | COc1ccc(Cl)c(-c2cc3[nH]c(=O)n(-c4cncc5sc(C(C)(C)O)c(C)c45)c(=O)c3s2)c1 [Example 516] | 8.28 |  |  | 8.10 | 
40 | Cn1ncc2cncc(-n3c(=O)c4sc(-c5ccc(F)cc5Cl)cc4n(CCC#N)c3=O)c21 (single isomer, unassigned) [Example 956, 3-(6-(2-chloro-4-fluorophenyl)-3-(1-methyl-1H-pyrazolo[4,3-c]pyridin-7-yl)-2,4-dioxo-3,4-dihydrothieno[3,2-d]pyrimidin-1(2H)-yl)propanenitrile] | < 6.00 | 6.16 |  |  | 
41 | COc1cc(-c2cc3c(s2)c(=O)n(-c2cncc4ccccc24)c(=O)n3CCC#N)c(C#N)cc1F (single isomer, unassigned) [Example 967, 2-(1-(2-cyanoethyl)-3-(isoquinolin-4-yl)-2,4-dioxo-1,2,3,4-tetrahydrothieno[3,2-d]pyrimidin-6-yl)-5-fluoro-4-methoxybenzonitrile] | 8.74 | 8.74 |  |  | 
42 | CCCn1cc(-c2cccc(Cl)c2-c2ccc3c(=O)n(-c4cncc5ccccc45)c(=O)[nH]c3c2)c(C(F)(F)F)n1 [Example 200] |  |  |  | 7.44 | 6.95
43 | O=c1[nH]c2cc(-c3ccccc3Cl)sc2c(=O)n1-c1cnccc1C1CC1 [Example 130, 6-(2-chlorophenyl)-3-(4-cyclopropylpyridin-3-yl)thieno[3,2-d]pyrimidine-2,4(1H,3H)-dione] |  |  |  | 6.83 | 7.14
44 | COc1cc(-c2cc3c(s2)c(=O)n(-c2cnccc2C)c(=O)n3CCC#N)c(Cl)cc1F (single isomer, unassigned) [Example 1030, 3-[6-(2-chloro-4-fluoro-5-methoxy-phenyl)-3-(4-methyl-3-pyridyl)-2,4-dioxo-thieno[3,2-d]pyrimidin-1-yl]propanenitrile] | 8.35 | 8.01 |  |  | 
